This experiment has as its system green peach aphid (Myzus persicae). The experiment in a line: Myzus test (spray treatment) on Chinese cabbage leaf disks. In kind it is in vivo. The note with it: foliar, 144 h, read-out: Mortality in % After 6 Days. As for the experimental part: A suitable preparation of active ingredient was prepared by mixing one part by weight of active ingredient with the stated amounts of solvent and emulsifier and diluting the concentrate with emulsifier-containing water to the desired concentration as described below. A suitable suspension of biological agent was prepared by dissolving the cells, spores or viruses in emulsifier-containing water at the desired concentration.
Chinese cabbage (Brassica pekinensis) leaf disks infested by all stages of the green peach aphid (Myzus persicae) were sprayed with an active ingredient and/or biological agent preparation in the desired concentration.
After the desired time, the effect in % was ascertained. Here, 100% means that all of the aphids had been killed; 0% means that no aphids had been killed. The mortality figures determined are used for calculation according to the Colby formula (cf. Colby, S. R., “Calculating Synergistic and Antagonistic Responses of Herbicide Combinations”, Weeds 1967, 15, 20-22).

Experimental findings from patent US20180064110A1, “COMBINATIONS OF FUNGICIDALLY ACTIVE YEAST AND FUNGICIDES” (Bayer CropScience AG, priority 2009, published 2018) are described below.

The term mortality denotes the share of the test organisms that died.

Regarding `O=C(NCCc1ncc(C(F)(F)F)cc1Cl)c1ccccc1C(F)(F)F` [Fluopyram, fluopyram], where the note is “500 g ai/ha”, the mortality at 500 g/ha turned out to be 0%. Moreover, the mortality at 1000 g/ha (1000 g ai/ha) came out at 0%.
